Measured values published in US20220387608A1, “ADRENOMEDULLIN-ANALOGUES FOR LONG-TERM STABILIZATION AND THEIR USE” (Bayer Aktiengesellschaft, priority 2019, published 2022).
Positions of bridges follow the written chain, without caps; N, C: chain ends. Non-standard residues stand in square brackets, D forms with d. Residues, ends and D or L forms follow the SMILES beside them. *: point of attachment. X1 = CN(C)c1ccc2c(c1)Oc1cc(N(C)C)ccc1C21OC(=O)c2ccc(C(=O)*)cc21; C18 diacid = O=C(O)CCCCCCCCCCCCCCCCC(=O)*; PEG3 = NCCOCCOCCOCCC(=O)O; Dap = NC[C@H](N)C(=O)O

Assay: Stability determination of TAMRA-labelled adrenomedullin analogues in human blood plasma
Assay type: in vitro ADME
Conditions: 37° C., 10^-5 M, slow-decay phase half-life, read-out: t1/2 (slow) (converted)
Procedure: The stability of the peptides was investigated using fluorescently labeled analogues, which were prepared as described above.
The TAMRA-labeled analogues were dissolved in 1.5 m1 of human blood plasma to a concentration of 10^−5 M and incubated at 37° C. under constant shaking. Samples of 150 μl were taken at different time points and precipitated with 300 μl Ethanol/ACN (1:1) for at least 1 h at −20° C. After centrifugation for 30 s at 12000 rpm, the supernatant was collected and incubated at −20° C. for at least 3 h. Subsequently, it was transferred into Costar® Spin-X® Centrifuge Tube Filters (0.22 μm) and centrifuged for 1 h at 12000 rpm. The samples were analyzed by RP-HPLC using a VariTide RPC column (Agilent Technologies, 250 mm×4.6 mm, […], 200 Å) with linear gradients of 0.1% TFA in water and 0.08% TFA in ACN; fluorescence measurement (λex=525 nm; λem=572 nm) was used for the detection of the analogues and their N-terminal fragments. The percentage of intact peptide was determined by peak integration. The values of peaks containing additional cleavage fragments were corrected by comparing intensities of cleavage fragments and intact peptide using MALDI-MS analysis (UltraflexIII, Bruker). The stability of the peptides was calculated with GraphPad Prism 5 (GraphPad Software) using a two phase exponential decay function for the determination of slow-decay phase half-lives (ln(2)/Kslow; Kslow: rate constant of slow part of exponential decay).

half-life [h] | SMILES
> 144 | CC[C@H](C)[C@H](NC(=O)[C@H](CCC(N)=O)NC(=O)[C@H](Cc1c[nH]cn1)NC(=O)[C@H](C)NC(=O)[C@H](CC(C)C)NC(=O)[C@H](CCCCN)NC(=O)[C@H](CCC(N)=O)NC(=O)[C@@H](NC(=O)[C@@H](NC(=O)[C@@H]1CSSC[C@H](NC(=O)CNC(=O)[C@H](CCCCNC(=O)CCCCCCCCCCCCCCCCC(=O)O)NC(=O)c2ccc3c(c2)C2(OC3=O)c3ccc(N(C)C)cc3Oc3cc(N(C)C)ccc32)C(=O)N[C@@H](CCCNC(=N)N)C(=O)N[C@@H](Cc2ccccc2)C(=O)NCC(=O)N[C@@H]([C@@H](C)O)C(=O)N1)[C@@H](C)O)C(C)C)C(=O)N[C@@H](Cc1ccc(O)cc1)C(=O)N[C@@H](CCC(N)=O)C(=O)N[C@@H](Cc1ccccc1)C(=O)N[C@H](C(=O)NCCOCCOCCOCCC(=O)N[C@@H](CC(=O)O)C(=O)N[C@@H](CC(N)=O)C(=O)N[C@H](C(=O)N[C@@H](C)C(=O)N1CCC[C@H]1C(=O)N[C@H]1CCCCNC(=O)C[C@@H](C(=O)N2CCC[C@H]2C(=O)N[C@@H](CCC(N)=O)C(=O)NCC(=O)N[C@@H](Cc2ccc(O)cc2)C(N)=O)NC(=O)[C@H]([C@@H](C)CC)NC(=O)[C@H](CCCCN)NC(=O)[C@H](CO)NC1=O)C(C)C)[C@@H](C)O [TAM-14] (X1-K(C18 diacid)GCRFGTCTVQKLAHQIYQFT[PEG3]DNVAPKSKIDPQGY-NH2; disulfide 3-8; lactam 28-32)
> 144 | CC[C@H](C)[C@H](NC(=O)[C@H](CCC(N)=O)NC(=O)[C@H](Cc1c[nH]cn1)NC(=O)[C@H](C)NC(=O)[C@H](CC(C)C)NC(=O)[C@H](CCCCN)NC(=O)[C@H](CCC(N)=O)NC(=O)[C@@H](NC(=O)[C@@H](NC(=O)[C@@H]1CCC(=O)NC[C@H](NC(=O)CNC(=O)[C@H](CCCCNC(=O)CCCCCCCCCCCCCCCCC(=O)O)NC(=O)c2ccc3c(c2)C2(OC3=O)c3ccc(N(C)C)cc3Oc3cc(N(C)C)ccc32)C(=O)N[C@@H](CCCNC(=N)N)C(=O)N[C@@H](Cc2ccccc2)C(=O)NCC(=O)N[C@@H]([C@@H](C)O)C(=O)N1)[C@@H](C)O)C(C)C)C(=O)N[C@@H](Cc1ccc(O)cc1)C(=O)N[C@@H](CCC(N)=O)C(=O)N[C@@H](Cc1ccccc1)C(=O)N[C@H](C(=O)N[C@@H](CC(=O)O)C(=O)N[C@@H](CCCCN)C(=O)N[C@@H](CC(=O)O)C(=O)N[C@@H](CCCCN)C(=O)N[C@@H](CC(=O)O)C(=O)N[C@@H](CC(N)=O)C(=O)N[C@H](C(=O)N[C@@H](C)C(=O)N1CCC[C@H]1C(=O)N[C@@H](CCCNC(=N)N)C(=O)N[C@@H](CO)C(=O)N[C@@H](CCCCN)C(=O)N[C@H](C(=O)N[C@@H](CO)C(=O)N1CCC[C@H]1C(=O)N[C@@H](CCC(N)=O)C(=O)NCC(=O)N[C@@H](Cc1ccc(O)cc1)C(N)=O)[C@@H](C)CC)C(C)C)[C@@H](C)O [TAM-15] (X1-K(C18 diacid)G[Dap]RFGTETVQKLAHQIYQFTDKDKDNVAPRSKISPQGY-NH2; lactam 3-8)
> 144 | CC[C@H](C)[C@H](NC(=O)[C@H](CCC(N)=O)NC(=O)[C@H](Cc1c[nH]cn1)NC(=O)[C@H](C)NC(=O)[C@H](CC(C)C)NC(=O)[C@H](CCCCN)NC(=O)[C@H](CCC(N)=O)NC(=O)[C@@H](NC(=O)[C@@H](NC(=O)[C@@H]1CCC(=O)NC[C@H](NC(=O)CNC(=O)[C@H](CCCCNC(=O)CCCCCCCCCCCCCCCCC(=O)O)NC(=O)c2ccc3c(c2)C2(OC3=O)c3ccc(N(C)C)cc3Oc3cc(N(C)C)ccc32)C(=O)N[C@@H](CCCNC(=N)N)C(=O)N[C@@H](Cc2ccccc2)C(=O)NCC(=O)N[C@@H]([C@@H](C)O)C(=O)N1)[C@@H](C)O)C(C)C)C(=O)N[C@@H](Cc1ccc(O)cc1)C(=O)N[C@@H](CCC(N)=O)C(=O)N[C@@H](Cc1ccccc1)C(=O)N[C@H](C(=O)N[C@@H](CC(=O)O)C(=O)N[C@@H](CCCCN)C(=O)N[C@@H](CC(=O)O)C(=O)N[C@@H](CCCCN)C(=O)N[C@@H](CC(=O)O)C(=O)N[C@@H](CC(N)=O)C(=O)N[C@H](C(=O)N[C@@H](C)C(=O)N1CCC[C@H]1C(=O)N[C@H]1CCCCNC(=O)C[C@@H](C(=O)N2CCC[C@H]2C(=O)N[C@@H](CCC(N)=O)C(=O)NCC(=O)N[C@@H](Cc2ccc(O)cc2)C(N)=O)NC(=O)[C@H]([C@@H](C)CC)NC(=O)[C@H](CCCCN)NC(=O)[C@H](CO)NC1=O)C(C)C)[C@@H](C)O [TAM-16] (X1-K(C18 diacid)G[Dap]RFGTETVQKLAHQIYQFTDKDKDNVAPKSKIDPQGY-NH2; lactam 3-8, 31-35)
> 144 | CC[C@H](C)[C@H](NC(=O)[C@H](CCC(N)=O)NC(=O)[C@H](Cc1c[nH]cn1)NC(=O)[C@H](C)NC(=O)[C@H](CC(C)C)NC(=O)[C@H](CCCCN)NC(=O)[C@H](CCC(N)=O)NC(=O)[C@@H](NC(=O)[C@@H](NC(=O)[C@@H]1CCC(=O)NC[C@H](NC(=O)CNC(=O)[C@H](CCCCNC(=O)CCCCCCCCCCCCCCCCC(=O)O)NC(=O)c2ccc3c(c2)C2(OC3=O)c3ccc(N(C)C)cc3Oc3cc(N(C)C)ccc32)C(=O)N[C@@H](CCCNC(=N)N)C(=O)N[C@@H](Cc2ccccc2)C(=O)NCC(=O)N[C@@H]([C@@H](C)O)C(=O)N1)[C@@H](C)O)C(C)C)C(=O)N[C@@H](Cc1ccc(O)cc1)C(=O)N[C@@H](CCC(N)=O)C(=O)N[C@@H](Cc1ccccc1)C(=O)N[C@H](C(=O)NCCOCCOCCOCCC(=O)N[C@@H](CC(=O)O)C(=O)N[C@@H](CC(N)=O)C(=O)N[C@H](C(=O)N[C@@H](C)C(=O)N1CCC[C@H]1C(=O)N[C@H]1CCCCNC(=O)C[C@@H](C(=O)N2CCC[C@H]2C(=O)N[C@@H](CCC(N)=O)C(=O)NCC(=O)N[C@@H](Cc2ccc(O)cc2)C(N)=O)NC(=O)[C@H]([C@@H](C)CC)NC(=O)[C@H](CCCCN)NC(=O)[C@H](CO)NC1=O)C(C)C)[C@@H](C)O [TAM-17] (X1-K(C18 diacid)G[Dap]RFGTETVQKLAHQIYQFT[PEG3]DNVAPKSKIDPQGY-NH2; lactam 3-8, 28-32)
12 | CC[C@H](C)[C@H](NC(=O)[C@H](CCC(N)=O)NC(=O)[C@H](Cc1c[nH]cn1)NC(=O)[C@H](C)NC(=O)[C@H](CC(C)C)NC(=O)[C@H](CCCCN)NC(=O)[C@H](CCC(N)=O)NC(=O)[C@@H](NC(=O)[C@@H](NC(=O)[C@@H]1CSSC[C@H](NC(=O)CNC(=O)CNC(=O)c2ccc3c(c2)C2(OC3=O)c3ccc(N(C)C)cc3Oc3cc(N(C)C)ccc32)C(=O)N[C@@H](CCCNC(=N)N)C(=O)N[C@@H](Cc2ccccc2)C(=O)NCC(=O)N[C@@H]([C@@H](C)O)C(=O)N1)[C@@H](C)O)C(C)C)C(=O)N[C@@H](Cc1ccc(O)cc1)C(=O)N[C@@H](CCC(N)=O)C(=O)N[C@@H](Cc1ccccc1)C(=O)N[C@H](C(=O)N[C@@H](CC(=O)O)C(=O)N[C@@H](CCCCN)C(=O)N[C@@H](CC(=O)O)C(=O)N[C@@H](CCCCN)C(=O)N[C@@H](CC(=O)O)C(=O)N[C@@H](CC(N)=O)C(=O)N[C@H](C(=O)N[C@@H](C)C(=O)N1CCC[C@H]1C(=O)N[C@@H](CCCNC(=N)N)C(=O)N[C@@H](CO)C(=O)N[C@@H](CCCCN)C(=O)N[C@H](C(=O)N[C@@H](CO)C(=O)N1CCC[C@H]1C(=O)N[C@@H](CCC(N)=O)C(=O)NCC(=O)N[C@@H](Cc1ccc(O)cc1)C(N)=O)[C@@H](C)CC)C(C)C)[C@@H](C)O [TAM-control, reference compound]
